24 compounds from patent publication US9718785B2, “1,3-Disubstituted cyclopentane derivatives” (MERCK PATENT GMBH, priority 2013, dated 2017) can be followed below.

pIC50: −log10 of the molar value.

In the experiment the target is T1, human recombinant full-length fatty acid synthase (FASN) (Homo sapiens, UniProt P49327).
T1 construct: 40 nM human recombinant full-length fatty acid synthase (produced in-house in SF9 cells); made in house; host or cells: SF9 insect cells
The experiment in a line: Biochemical activity testing of human fatty acid synthase FASN (NADPH fluorescence intensity enzyme assay). Conditions: human recombinant FASN, enzyme assay. The essentials: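 Recombinant full-length human FASN from SF9 cells, preincubated with compound (10 concentrations, top 30 μM final, 1% DMSO) and NADPH ≥15 min at room temperature, pH 7.0. Acetyl-CoA and malonyl-CoA added; NADPH fluorescence (340/460 nm) read before and after 30 min. IC50 from signal difference, normalised to uninhibited reaction and GSK837149A zero control.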

T1 sequence (P49327 whole entry): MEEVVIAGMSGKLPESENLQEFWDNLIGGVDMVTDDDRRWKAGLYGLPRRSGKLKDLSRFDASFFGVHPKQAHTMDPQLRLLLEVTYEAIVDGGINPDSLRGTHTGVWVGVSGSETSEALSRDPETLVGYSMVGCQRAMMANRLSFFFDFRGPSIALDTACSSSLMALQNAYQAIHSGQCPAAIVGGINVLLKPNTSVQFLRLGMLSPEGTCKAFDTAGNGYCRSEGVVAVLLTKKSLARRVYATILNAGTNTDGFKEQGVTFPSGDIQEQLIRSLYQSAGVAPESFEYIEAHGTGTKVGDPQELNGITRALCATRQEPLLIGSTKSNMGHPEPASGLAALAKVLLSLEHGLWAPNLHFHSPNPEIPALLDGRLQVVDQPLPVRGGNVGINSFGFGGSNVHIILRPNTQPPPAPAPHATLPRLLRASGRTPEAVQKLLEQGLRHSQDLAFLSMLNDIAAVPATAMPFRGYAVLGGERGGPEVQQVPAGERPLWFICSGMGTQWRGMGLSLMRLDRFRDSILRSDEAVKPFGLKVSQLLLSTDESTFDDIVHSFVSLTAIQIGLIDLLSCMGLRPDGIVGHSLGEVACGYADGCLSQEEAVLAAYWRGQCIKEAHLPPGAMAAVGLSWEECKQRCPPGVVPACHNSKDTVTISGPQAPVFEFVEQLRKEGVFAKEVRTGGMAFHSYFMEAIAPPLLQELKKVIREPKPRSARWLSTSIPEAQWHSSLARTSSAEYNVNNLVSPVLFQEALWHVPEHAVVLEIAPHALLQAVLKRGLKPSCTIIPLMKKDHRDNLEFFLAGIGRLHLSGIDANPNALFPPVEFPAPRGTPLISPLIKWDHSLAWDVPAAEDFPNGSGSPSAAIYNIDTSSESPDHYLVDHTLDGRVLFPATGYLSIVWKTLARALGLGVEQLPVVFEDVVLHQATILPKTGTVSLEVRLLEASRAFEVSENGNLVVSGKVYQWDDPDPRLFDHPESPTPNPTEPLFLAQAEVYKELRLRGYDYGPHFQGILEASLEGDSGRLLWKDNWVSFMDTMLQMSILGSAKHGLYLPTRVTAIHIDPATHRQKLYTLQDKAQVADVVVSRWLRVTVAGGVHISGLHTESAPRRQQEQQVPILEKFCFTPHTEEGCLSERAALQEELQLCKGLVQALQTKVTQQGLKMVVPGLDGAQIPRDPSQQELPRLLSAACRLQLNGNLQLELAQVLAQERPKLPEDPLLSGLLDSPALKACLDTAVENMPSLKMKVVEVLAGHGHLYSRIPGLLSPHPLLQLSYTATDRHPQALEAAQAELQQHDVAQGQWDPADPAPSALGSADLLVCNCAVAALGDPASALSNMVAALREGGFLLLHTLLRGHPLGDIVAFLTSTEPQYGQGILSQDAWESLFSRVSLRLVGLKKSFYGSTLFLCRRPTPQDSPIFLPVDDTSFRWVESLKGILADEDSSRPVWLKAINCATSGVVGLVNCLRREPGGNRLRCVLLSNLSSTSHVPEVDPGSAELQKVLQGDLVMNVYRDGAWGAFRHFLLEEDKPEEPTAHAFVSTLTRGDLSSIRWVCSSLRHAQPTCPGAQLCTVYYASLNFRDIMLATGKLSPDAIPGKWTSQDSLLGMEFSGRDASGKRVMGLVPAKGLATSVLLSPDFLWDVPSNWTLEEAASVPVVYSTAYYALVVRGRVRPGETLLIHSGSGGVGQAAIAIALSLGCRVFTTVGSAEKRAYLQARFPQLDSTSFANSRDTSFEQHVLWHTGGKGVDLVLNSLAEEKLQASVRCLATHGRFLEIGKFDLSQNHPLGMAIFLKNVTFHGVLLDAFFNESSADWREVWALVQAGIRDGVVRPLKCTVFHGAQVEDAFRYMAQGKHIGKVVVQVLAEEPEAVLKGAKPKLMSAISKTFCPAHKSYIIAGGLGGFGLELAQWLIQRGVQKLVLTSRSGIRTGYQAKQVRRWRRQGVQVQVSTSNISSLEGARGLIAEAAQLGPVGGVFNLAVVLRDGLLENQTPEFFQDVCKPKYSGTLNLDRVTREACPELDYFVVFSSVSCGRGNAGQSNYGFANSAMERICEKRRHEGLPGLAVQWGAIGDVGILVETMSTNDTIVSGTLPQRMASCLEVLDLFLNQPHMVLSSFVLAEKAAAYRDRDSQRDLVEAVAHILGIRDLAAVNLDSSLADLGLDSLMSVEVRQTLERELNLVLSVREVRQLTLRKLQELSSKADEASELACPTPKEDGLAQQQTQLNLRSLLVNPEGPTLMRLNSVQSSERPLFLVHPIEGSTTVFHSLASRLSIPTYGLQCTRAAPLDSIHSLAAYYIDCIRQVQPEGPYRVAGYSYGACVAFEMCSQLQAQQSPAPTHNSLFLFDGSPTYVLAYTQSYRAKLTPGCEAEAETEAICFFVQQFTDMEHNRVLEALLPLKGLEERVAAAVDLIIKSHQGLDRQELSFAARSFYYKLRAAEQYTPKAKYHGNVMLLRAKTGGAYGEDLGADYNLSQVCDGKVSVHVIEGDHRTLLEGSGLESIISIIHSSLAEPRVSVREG

Take `CCC(=O)N[C@H]1CC[C@@H](n2nncc2-c2ccc(-c3ccc4c(c3)NC(=O)C4)cc2)C1` [Compound A91, N-((1S,3R)-3-{5-[4-(2-Oxo-2,3-dihydro-1H-indol-6-yl)-phenyl]-[1,2,3]triazol-1-yl}-cyclopentyl)-propionamide]: the pIC50 is over 6.52.

Consider `CCC(=O)N[C@H]1CC[C@@H](n2nncc2-c2ccc(-c3ccc(OCC4CC4)cc3)cc2)C1` [Compound A92, N-{(1S,3R)-3-[5-(4′-Cyclopropylmethoxy-biphenyl-4-yl)-[1,2,3]triazol-1-yl]-cyclopentyl}-propionamide], for which the pIC50 was over 6.52.

For the compound `O=C(N[C@H]1CC[C@@H](n2nncc2-c2ccc(-c3nc4ccccc4o3)cc2)C1)[C@@H](O)CO` [Compound A93, (S)—N-{(1S,3R)-3-[5-(4-Benzoxazol-2-yl-phenyl)-[1,2,3]triazol-1-yl]-cyclopentyl}-2,3-dihydroxy-propionamide], the pIC50 was 5.52 to 6.52.

Take `CCC(=O)N[C@H]1CC[C@@H](n2cnnc2-c2ccc(-c3ccc(OC)cc3C)cc2)C1` [Compound A94, N-{(1S,3R)-3-[3-(4′-Methoxy-2′-methyl-biphenyl-4-yl)-[1,2,4]triazol-4-yl]-cyclopentyl}-propionamide]: the pIC50 was over 6.52.

With `CCC(=O)N[C@H]1CC[C@@H](n2cnnc2-c2ccc(-c3ccc(Cl)c(F)c3)cc2)C1` [Compound A95, N-{(1S,3R)-3-[3-(4′-Chloro-3′-fluoro-biphenyl-4-yl)[1,2,4]triazol-4-yl]-cyclopentyl}-propionamide], the pIC50 was over 6.52.

As for `CCC(=O)N[C@H]1CC[C@@H](n2cnnc2-c2ccc(-c3ccc(-n4cccn4)cc3)cc2)C1` [Compound A96, N-{(1S,3R)-3-[3-(4′-Pyrazol-1-yl-biphenyl-4-yl)[1,2,4]triazol-4-yl]-cyclopentyl}-propionamide], the pIC50 was over 6.52.

Consider `CCC(=O)N[C@H]1CC[C@@H](n2cnnc2-c2ccc(-c3ccc4c(ccn4C)c3)cc2)C1` [Compound A97, N-((1S,3R)-3-{3-[4-(1-Methyl-1H-indol-5-yl)-phenyl]-[1,2,4]triazol-4-yl}-cyclopentyl)-propionamide], for which the pIC50 was over 6.52.

For `CCC(=O)N[C@H]1CC[C@@H](n2cnnc2-c2ccc(-c3cc4cn[nH]c4cc3C)cc2)C1` [Compound A98, N-((1S,3R)-3-{3-[4-(6-Methyl-1H-indazol-5-yl)-phenyl]-[1,2,4]triazol-4-yl}-cyclopentyl)-propionamide], the pIC50 is over 6.52.

For `CCNC(=O)[C@H]1CC[C@@H](n2nncc2-c2ccc(-c3ccc(C(N)=O)cc3)cc2)C1` [Compound A99, 4′-[3-((1R,3S)-3-Ethylcarbamoyl-cyclopentyl)-3H-[1,2,3]triazol-4-yl]-biphenyl-4-carboxylic acid amide], the pIC50 was 5.52 to 6.52.

Take `CCNC(=O)[C@H]1CC[C@@H](n2nncc2-c2ccc(-c3ccc(C(=O)O)cc3)cc2)C1` [Compound A100, 4′-[3-((1R,3S)-3-Ethylcarbamoyl-cyclopentyl)-3H-[1,2,3]triazol-4-yl]-biphenyl-4-carboxylic acid]: the pIC50 is 5.52 to 6.52.

`CCNC(=O)[C@H]1CC[C@@H](n2nncc2-c2ccc(-c3ccc(OC)c(OC)c3)cc2)C1` [Compound A102, (1S,3R)-3-[5-(3′,4′-Dimethoxy-biphenyl-4-yl)-[1,2,3]triazol-1-yl]-cyclopentanecarboxylic acid ethylamide]: the negative-log IC50 (pIC50) was over 6.52.

Regarding `CCNC(=O)[C@H]1CC[C@@H](n2nncc2-c2ccc(-c3ccc(OCC4CC4)cc3)cc2)C1` [Compound A103, (1S,3R)-3-[5-(4′-Cyclopropylmethoxy-biphenyl-4-yl)-[1,2,3]triazol-1-yl]-cyclopentanecarboxylic acid ethylamide], the pIC50 is over 6.52.

Turning to `CCNC(=O)[C@H]1CC[C@@H](n2nncc2-c2ccc(-c3ccc(Cl)c(F)c3)cc2)C1` [Compound A104, (1S,3R)-3-[5-(4′-Chloro-3′-fluoro-biphenyl-4-yl)-[1,2,3]triazol-1-yl]-cyclopentanecarboxylic acid ethylamide], the pIC50 is over 6.52.

Turning to `CCNC(=O)[C@H]1CC[C@@H](n2nncc2-c2ccc(-c3ccc(C#N)c(F)c3)cc2)C1` [Compound A105, (1S,3R)-3-[5-(4′-Cyano-3′-fluoro-biphenyl-4-yl)-[1,2,3]triazol-1-yl]-cyclopentanecarboxylic acid ethylamide], the pIC50 was over 6.52.

Turning to `CCNC(=O)[C@H]1CC[C@@H](n2nncc2-c2ccc(-c3ccc(C#N)cc3F)cc2)C1` [Compound A106, (1S,3R)-3-[5-(4′-Cyano-2′-fluoro-biphenyl-4-yl)-[1,2,3]triazol-1-yl]-cyclopentanecarboxylic acid ethylamide], the pIC50 is over 6.52.

For the compound `CCC(=O)N[C@H]1CC[C@@H](n2nncc2-c2ccc(-c3ccc4[nH]ccc4c3)nc2)C1` [Compound A107, N-((1S,3R)-3-{5-[6-(1H-Indol-5-yl)-pyridin-3-yl]-[1,2,3]triazol-1-yl}-cyclopentyl)-propionamide], the pIC50 is over 6.52.

Turning to `CCC(=O)N[C@H]1CC[C@@H](n2nncc2-c2ccc(-c3ccc4[nH]ccc4c3F)nc2)C1` [Compound A108, N-((1S,3R)-3-{5-[6-(4-Fluoro-1H-indol-5-yl)-pyridin-3-yl]-[1,2,3]triazol-1-yl}-cyclopentyl)-propionamide], the pIC50 was over 6.52.

With `CCC(=O)N[C@H]1CC[C@@H](n2nncc2-c2ccc(-c3ccc4nccn4c3)nc2)C1` [Compound A109, N-{(1S,3R)-3-[5-(6-Imidazo[1,2-a]pyridin-6-yl-pyridin-3-yl)-[1,2,3]triazol-1-yl]-cyclopentyl}-propionamide], the pIC50 was 5.52 to 6.52.

Consider `CCC(=O)N[C@H]1CC[C@@H](n2nncc2-c2ccc(-c3ccc4[nH]ccc4c3F)cc2)C1` [Compound A110, N-((1S,3R)-3-{5-[4-(4-Fluoro-1H-indol-5-yl)-phenyl]-[1,2,3]triazol-1-yl}-cyclopentyl)-propionamide], for which the pIC50 was over 6.52.

Regarding `CCC(=O)N[C@H]1CC[C@@H](n2nncc2-c2ccc(-c3ccc4nccn4c3)cc2)C1` [Compound A111, N-{(1S,3R)-3-[5-(4-Imidazo[1,2-a]pyridin-6-yl-phenyl)-[1,2,3]triazol-1-yl]-cyclopentyl}-propionamide], the pIC50 is over 6.52.

Turning to `CCC(=O)N[C@H]1CC[C@@H](n2nncc2-c2ccc(-c3cc4cc[nH]c4cc3F)cc2)C1` [Compound A112, N-((1S,3R)-3-{5-[4-(6-Fluoro-1H-indol-5-yl)-phenyl]-[1,2,3]triazol-1-yl}-cyclopentyl)-propionamide], the pIC50 is over 6.52.

On to `CCC(=O)N[C@H]1CC[C@@H](n2nncc2-c2ccc(-c3ccc4[nH]ccc4n3)cc2)C1` [Compound A113, N-((1S,3R)-3-{5-[4-(1H-Pyrrolo[3,2-b]pyridin-5-yl)-phenyl]-[1,2,3]triazol-1-yl}-cyclopentyl)-propionamide], for which the pIC50 is over 6.52.

`CCC(=O)N[C@H]1CC[C@@H](n2nncc2-c2ccc(-c3nc4ccc(Cl)cc4o3)cn2)C1` [Compound A114, N-((1S,3R)-3-{5-[5-(6-Chloro-benzoxazol-2-yl)-pyridin-2-yl]-[1,2,3]triazol-1-yl}-cyclopentyl)-propionamide]: the pIC50 is 5.52 to 6.52.

As for `CCC(=O)N[C@H]1CC[C@@H](n2nncc2-c2ccc(-c3nc4ccccc4o3)cn2)C1` [Compound A115, N-{(1S,3R)-3-[5-(5-Benzoxazol-2-yl-pyridin-2-yl)-[1,2,3]triazol-1-yl]-cyclopentyl}-propionamide], the negative logarithm of the IC50 (pIC50) was over 6.52.
